Experiments:
[1] = The drug is tested on Providencia stuartii strain: ATCC25827 for biotransformation. The drug concentrations were measured before and after a 12-h incubation by liquid-chromatography-coupled mass spectrometry (LC–MS); settings: 2 µM
[2] = The drug is tested on Dorea formicigenerans strain: ATCC27755 for biotransformation. The drug concentrations were measured before and after a 12-h incubation by liquid-chromatography-coupled mass spectrometry (LC–MS); settings: 2 µM
[3] = The drug is tested on Providencia rettgeri strain: DSM1131 for biotransformation. The drug concentrations were measured before and after a 12-h incubation by liquid-chromatography-coupled mass spectrometry (LC–MS); type: ADME; design: dose 2 uM, timepoint 0 vs 12 hours; settings: 2 µM
[4] = The drug is tested on Bacteroides finegoldii strain: DSM17565 for biotransformation. The drug concentrations were measured before and after a 12-h incubation by liquid-chromatography-coupled mass spectrometry (LC–MS); settings: 2 µM
[5] = The drug is tested on Bacteroides coprophilus strain: DSM18228 for biotransformation. The drug concentrations were measured before and after a 12-h incubation by liquid-chromatography-coupled mass spectrometry (LC–MS); settings: 2 µM
[6] = The drug is tested on Bacteroides vulgatus strain: ATCC8482 for biotransformation. The drug concentrations were measured before and after a 12-h incubation by liquid-chromatography-coupled mass spectrometry (LC–MS); settings: phocaeicola vulgatus, 2 µM
[7] = The drug is tested on Bacteroides caccae strain: ATCC43185 for biotransformation. The drug concentrations were measured before and after a 12-h incubation by liquid-chromatography-coupled mass spectrometry (LC–MS); settings: 2 µM
[8] = bacteroides fragilis, 12 h, 2 µM
Description: The drug is tested on Bacteroides fragilis strain: DS-208 for biotransformation. The drug concentrations were measured before and after a 12-h incubation by liquid-chromatography-coupled mass spectrometry (LC–MS)

[9] = The drug is tested on Ruminococcus torques strain: ATCC27756 for biotransformation. The drug concentrations were measured before and after a 12-h incubation by liquid-chromatography-coupled mass spectrometry (LC–MS); type: ADME; design: dose 2 uM, timepoint 0 vs 12 hours; settings: 2 µM
[10] = The drug is tested on Bacteroides fragilis strain: HMW615 for biotransformation. The drug concentrations were measured before and after a 12-h incubation by liquid-chromatography-coupled mass spectrometry (LC–MS); settings: 2 µM
[11] = The drug is tested on Anaerococcus hydrogenalis strain: DSM7454 for biotransformation. The drug concentrations were measured before and after a 12-h incubation by liquid-chromatography-coupled mass spectrometry (LC–MS); settings: 2 µM
[12] = The drug is tested on Bacteroides uniformis strain: ATCC8492 for biotransformation. The drug concentrations were measured before and after a 12-h incubation by liquid-chromatography-coupled mass spectrometry (LC–MS); settings: 2 µM
[13] = parabacteroides johnsonii, 12 h, 2 µM
Description: The drug is tested on Parabacteroides johnsonii strain: DSM18315 for biotransformation. The drug concentrations were measured before and after a 12-h incubation by liquid-chromatography-coupled mass spectrometry (LC–MS)

[14] = The drug is tested on Bacteroides sp. WH2 strain: WH2 for biotransformation. The drug concentrations were measured before and after a 12-h incubation by liquid-chromatography-coupled mass spectrometry (LC–MS); settings: bacteroides sp. wh2, 12 h, 2 µM
[15] = The drug is tested on Collinsella intestinalis strain: DSM13280 for biotransformation. The drug concentrations were measured before and after a 12-h incubation by liquid-chromatography-coupled mass spectrometry (LC–MS); settings: 2 µM
[16] = bacteroides intestinalis, 12 h, 2 µM
Description: The drug is tested on Bacteroides intestinalis strain: DSM17393 for biotransformation. The drug concentrations were measured before and after a 12-h incubation by liquid-chromatography-coupled mass spectrometry (LC–MS)

[17] = The drug is tested on Odoribacter splanchnicus strain: fecal isolate for biotransformation. The drug concentrations were measured before and after a 12-h incubation by liquid-chromatography-coupled mass spectrometry (LC–MS); settings: 2 µM
[18] = akkermansia muciniphila, 12 h, 2 µM
Description: The drug is tested on Akkermansia muciniphila strain: ATCC BAA-835 for biotransformation. The drug concentrations were measured before and after a 12-h incubation by liquid-chromatography-coupled mass spectrometry (LC–MS)

[19] = The drug is tested on Bacteroides xylanisolvens strain: DSM18836 for biotransformation. The drug concentrations were measured before and after a 12-h incubation by liquid-chromatography-coupled mass spectrometry (LC–MS); settings: 2 µM

Row | Compound | Bacterial Biotransformation [1] | Bacterial Biotransformation [2] | Bacterial Biotransformation [3] | Bacterial Biotransformation [4] | Bacterial Biotransformation [5] | Bacterial Biotransformation [6] | Bacterial Biotransformation [7] | Bacterial Biotransformation [8] | Bacterial Biotransformation [9] | Bacterial Biotransformation [10] | Bacterial Biotransformation [11] | Bacterial Biotransformation [12] | Bacterial Biotransformation [13] | Bacterial Biotransformation [14] | Bacterial Biotransformation [15] | Bacterial Biotransformation [16] | Bacterial Biotransformation [17] | Bacterial Biotransformation [18] | Bacterial Biotransformation [19]
1 | Cc1ccccc1C(OCCN(C)C)c1ccccc1.O=C(O)CC(O)(CC(=O)O)C(=O)O (stereo not given) [ORPHENADRINE CITRATE] | Compound NOT metabolized | Compound NOT metabolized | Compound NOT metabolized | Compound NOT metabolized | Compound NOT metabolized | Compound NOT metabolized | Compound NOT metabolized | Compound NOT metabolized | Compound NOT metabolized | Compound NOT metabolized | Compound NOT metabolized | Compound NOT metabolized | Compound NOT metabolized | Compound NOT metabolized | Compound NOT metabolized | Compound NOT metabolized | Compound NOT metabolized | – | –
2 | COc1cc2nc(N3CCN(C(=O)C4COc5ccccc5O4)CC3)nc(N)c2cc1OC.CS(=O)(=O)O (stereo not given) [DOXAZOSIN MESYLATE] | Compound NOT metabolized | Compound NOT metabolized | Compound NOT metabolized | Compound NOT metabolized | Compound NOT metabolized | – | Compound NOT metabolized | Compound NOT metabolized | Compound NOT metabolized | Compound NOT metabolized | Compound NOT metabolized | Compound metabolized | Compound NOT metabolized | Compound NOT metabolized | Compound NOT metabolized | Compound NOT metabolized | Compound NOT metabolized | Compound NOT metabolized | –
3 | OCCN(CCO)c1nc(N2CCCCC2)c2nc(N(CCO)CCO)nc(N3CCCCC3)c2n1 [DIPYRIDAMOLE] | Compound NOT metabolized | Compound NOT metabolized | Compound NOT metabolized | Compound NOT metabolized | Compound NOT metabolized | Compound metabolized | Compound NOT metabolized | Compound metabolized | Compound NOT metabolized | Compound NOT metabolized | Compound NOT metabolized | – | Compound metabolized | Compound NOT metabolized | Compound NOT metabolized | Compound NOT metabolized | – | Compound NOT metabolized | –
4 | CC(C)N(CCC(C(N)=O)(c1ccccc1)c1ccccn1)C(C)C.O=P(O)(O)O (stereo not given) [DISOPYRAMIDE PHOSPHATE] | Compound NOT metabolized | Compound NOT metabolized | Compound NOT metabolized | Compound NOT metabolized | Compound NOT metabolized | – | Compound NOT metabolized | Compound NOT metabolized | – | Compound NOT metabolized | Compound NOT metabolized | – | Compound NOT metabolized | Compound NOT metabolized | Compound NOT metabolized | Compound NOT metabolized | Compound NOT metabolized | Compound NOT metabolized | Compound NOT metabolized
5 | CC1OC(OC2C(O)CC(OC3C(O)CC(OC4CCC5(C)C(CCC6C5CCC5(C)C(C7=CC(=O)OC7)CCC65O)C4)OC3C)OC2C)CC(O)C1O (stereo not given) | Compound NOT metabolized | Compound NOT metabolized | Compound NOT metabolized | Compound NOT metabolized | Compound metabolized | Compound metabolized | Compound NOT metabolized | Compound metabolized | Compound NOT metabolized | Compound metabolized | Compound NOT metabolized | Compound metabolized | Compound metabolized | Compound NOT metabolized | Compound NOT metabolized | – | Compound metabolized | Compound NOT metabolized | Compound metabolized
6 | COc1ccc2cc([C@H](C)C(=O)O)ccc2c1 [NAPROXEN] | Compound NOT metabolized | Compound NOT metabolized | Compound NOT metabolized | – | Compound NOT metabolized | Compound NOT metabolized | Compound NOT metabolized | Compound NOT metabolized | Compound NOT metabolized | Compound metabolized | Compound NOT metabolized | Compound NOT metabolized | – | – | Compound NOT metabolized | Compound NOT metabolized | Compound NOT metabolized | Compound NOT metabolized | Compound NOT metabolized
7 | CN1CCN(C2=Nc3ccccc3Oc3ccc(Cl)cc32)CC1.O=C(O)CCC(=O)O [LOXAPINE SUCCINATE] | – | Compound NOT metabolized | Compound NOT metabolized | Compound NOT metabolized | Compound NOT metabolized | Compound NOT metabolized | Compound NOT metabolized | Compound NOT metabolized | Compound NOT metabolized | Compound NOT metabolized | Compound NOT metabolized | Compound NOT metabolized | Compound NOT metabolized | Compound NOT metabolized | Compound NOT metabolized | Compound NOT metabolized | Compound NOT metabolized | Compound NOT metabolized | Compound NOT metabolized
8 | N#Cc1ccc2c(c1)N(CCCN1CCC(O)CC1)c1ccccc1S2 [PERICIAZINE] | – | Compound NOT metabolized | Compound NOT metabolized | Compound metabolized | – | Compound metabolized | Compound metabolized | – | Compound NOT metabolized | Compound NOT metabolized | Compound NOT metabolized | Compound NOT metabolized | Compound metabolized | Compound NOT metabolized | Compound NOT metabolized | Compound NOT metabolized | – | Compound NOT metabolized | –
9 | C[C@H]1O[C@@H](O[C@H]2[C@@H](O)C[C@H](O[C@H]3[C@@H](O)C[C@H](O[C@H]4CC[C@@]5(C)[C@H](CC[C@@H]6[C@@H]5C[C@@H](O)[C@]5(C)[C@@H](C7=CC(=O)OC7)CC[C@]65O)C4)O[C@@H]3C)O[C@@H]2C)C[C@H](O)[C@@H]1O [DIGOXIN] | Compound NOT metabolized | Compound NOT metabolized | Compound NOT metabolized | – | Compound metabolized | Compound metabolized | Compound NOT metabolized | Compound metabolized | Compound NOT metabolized | Compound metabolized | Compound NOT metabolized | Compound metabolized | Compound metabolized | Compound NOT metabolized | Compound NOT metabolized | Compound NOT metabolized | Compound metabolized | Compound NOT metabolized | Compound metabolized

— ChEMBL document CHEMBL5303573, “Mapping human microbiome drug metabolism by gut bacteria and their genes” (Nature, 2019)
